Here are results for five molecules from patent publication USRE47528E1, “Protease for wound conditioning and skin care” (B.R.A.I.N. BIOTECHNOLOGY RESEARCH AND INFORMATION NETWORK AG, priority 2009, dated 2019).

“Also recorded” adds a separate entry of the source.

For data set [1], the system named is larval secretions. Conditions: cited from earlier work.
In data set [2] the test system is debrilase. Description: Liquid phase activity assay and inhibitory profiling (BODIPY-FL-Casein fluorescence assay). It counts as biochemical, Lucilia sericata. The settings on record: for inhibition of debrilase activity: PMSF 5 mmol/l, APMSF 1 mmol/l. As for the experimental part: Quantification of proteolytic activity was conducted by a fluorescence assay in 96-well plates with BODIPY-FL-Casein (Molecular Probes) used as substrate. Hereby, on the undigested substrate casein the labelling molecules are in close contact to each other and therefore fluorescence is suppressed by a quenching mechanism. In case of hydrolysis these molecules separate from each other and fluorescence can be excited at 485 nm and measured at 520 nm.
A standard assay contained 5 μg/ml BODIPY-FL-Casein in 100 μl PBS buffer and a series of dilutions of protease extract. Samples were incubated for 60 min at 37° C. and fluorescence was measured using a spectrophotometer (NovoStar, BMG LABTECH, Offenburg, Germany), applying the following parameters: excitation 485 nm, emission 520 nm, gain 5, one cycle, 10 flashes. Serine protease inhibitors APMSF (4-amidinophenylmethanesulfonyl fluoride) and PMSF (phenylmethanesulfonyl fluoride) were used for testing the specificity of the isolated protease. The following assay concentration were used:
The recombinant protease type was identified in a liquid assay in a 96-well plate using inhibitors specific for different types of proteases. Herein, specific inhibitors for trypsin (4-amidinophenylmethyl-sulphonyl fluoride, APMSF), serine (phenylmethylsulphonyl fluoride, PMSF), aspartyl-(pepstatin A) and metallo-type proteases (1,10-phenanthroline) were measured.

Data set [3] concerns Lucilia sericata debrilase (trypsin-like serine protease), mature protein SEQ ID NO: 4, pre-propeptide SEQ ID NO: 2. Description: Enzyme kinetics of Debrilase, fluorometric assay with Z-Gly-Gly-Arg-AMC. It counts as biochemical. On the procedure: (§1) Activity of the debrilase was measured in liquid assay using appropriate buffer systems in the range of 3-10 (0.1 to 0.2 M citric acid buffer, pH 3-7; 0.05 M tris buffer, pH 8; 0.1 M carbonate buffer, pH 9-10) and the fluorogenic substrate Z-Gly-Gly-Arg-AMC. The release of 7-amino-4-methylcoumarin (AMC) was measured with a BMC Novostar Fluorometer (λexcitation 365 nm, λemission 440 nm).
Molecular and Enzymatic Properties of Debrilase

Data set [4] relates to Z-Gly-Gly-Arg-AMC. The data set is described as follows: Fluorometric liquid assay using Z-Gly-Gly-Arg-AMC as substrate. It counts as biochemical. On the procedure: as §1
Data set [5] deals with Suc-Ala-Ala-Phe-AMC. Description: Proteolytic activity against Suc-Ala-Ala-Phe-AMC. It counts as biochemical.
Data set [6] deals with Tosyl-Gly-Pro-Arg-AMC. The data set is described as follows: Proteolytic activity against Tosyl-Gly-Pro-Arg-AMC. It is filed as biochemical.
Data set [7] concerns casein. The data set is described as follows: Diffusion assay on agar containing casein / skim milk. It is filed as biochemical. From the text:
FIG. 1: Diffusion assay on agar containing casein showing a clearing zone around a debrilase secreting clone of E. coli.
Colony forming units resulted from mass excision described above were screened on agar media containing 2% skim milk under selective conditions. Expression of heterologous proteases was driven by the vector comprising inducible Plac promoter. Colonies expressing heterologous proteases were detected by the formation of clearing zones in the turbid Skim Milk medium around the colonies.

The target of data set [8] is T1, human PAR2 (Homo sapiens, UniProt P55085).
T1 construct: wild type HEK293 cell line endogenously expressing human PAR2; endogenous in cells; host or cells: HEK293
T1 sequence (P55085 26-397): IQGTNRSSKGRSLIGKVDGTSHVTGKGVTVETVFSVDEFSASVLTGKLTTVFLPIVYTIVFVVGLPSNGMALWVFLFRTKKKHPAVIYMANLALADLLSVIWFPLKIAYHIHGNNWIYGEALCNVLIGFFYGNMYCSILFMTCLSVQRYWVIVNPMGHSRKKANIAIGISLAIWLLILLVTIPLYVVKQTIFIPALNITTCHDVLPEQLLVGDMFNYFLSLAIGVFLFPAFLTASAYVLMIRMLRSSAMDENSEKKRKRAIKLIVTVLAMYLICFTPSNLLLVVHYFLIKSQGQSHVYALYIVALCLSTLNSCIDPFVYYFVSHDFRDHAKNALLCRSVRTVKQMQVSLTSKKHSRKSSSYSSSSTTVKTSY
The data set is described as follows: Activation of PAR 2 (calcium imaging) in HEK293 cells. Conditions: HEK293 cells endogenously expressing human PAR2, Ca2+-flux read-out. It is filed as cell-based. As for the experimental part: The activity of debrilase as agonist of PAR 2 was monitored over time in a cell based fluorescence assay by use of a wild type HEK293 cell line endogenously expressing human PAR2. In brief, 1 day prior to performing the assay, HEK293 cells expressing human PAR2 were plated onto 96-well, black-walled, assay plates, at a density of 45,000 cells per well. Using a 96-well microplate reader (FlexStation®, Molecular Devices, Sunnyvale, Calif.), the change of the cellular calcium concentration was monitored by use of the calcium sensitive fluorescent dye fluo-4 (excitation 494 nm, emission 516 nm). The PAR 2 agonist trypsin (8 nM) was used as positive control. The dye-loaded cells in plates were placed into the fluorescence microplate reader to monitor fluorescence (excitation 488 nm, emission 520 nm) change after the addition of 50 μl assay buffer (118 mM NaCl; 4.7 mM KCl; 1.2 mM MgSO4; 1.2 mM KH2PO4 4.2 mM […]; 1.3 mM CaCl2; 10 mM HEPES (pH: 7.4)) supplemented with an agonist. Calcium mobilization was quantified as the change of peak fluorescence (ΔF) over the baseline level (F). Data were expressed as the mean S.E. of the ΔF/F value (=RFU, relative fluorescence units) of replicated independent samples. The analysis was done with the software of the FlexStation®.

In data set [9] the test system is fibrin. The data set is described as follows: Solid phase activity assay for fibrinolytic activity (fibrin agar). It is filed as biochemical. Conditions: fibrin containing agar. As for the experimental part: To identify fibrinolytic activity in extracts of casein degrading clones a solid agar assay was used. For this, a solution A containing 200 mg agarose, 87 mg NaCl and 3 mg CaCl2 were added to 10 ml 0.1 M Tris pH7.4 and incubated at 50° C. To a second solution B containing 10 ml 0.9% NaCl and 100 mg Fibrin (Sigma F3879), 20 μl Plasminogen (2 units/mg, Sigma P7397) e added and pre-incubated at 50° C. Both solutions were combined with 12 μl Thrombin (175-350 NIH units, Sigma T4265) and spread on agar plates using micro-well forming devices. In case of a fibrinolytic activity a clear zone appears in the opaque medium around extract containing cavities.
To identify fibrinolytic activity in casein degrading clones a solid agar assay was used. Therefore a medium A consisting of 10 ml 2× Luria Bertani containing 200 mg agarose, 87 mg NaCl and 3 mg CaCl2 was incubated at 50° C. To a solution B containing 10 ml 0.9% NaCl and 100 mg Fibrin (Sigma F3879), 20 μl plasminogen (2 units/mg, Sigma P7397) was added and pre-incubated at 50° C. […]
Fibrinolytic activity in cell free crude extracts was determined using buffered agar medium containing fibrin. […] Crude extract with fibrinolytic activity was detected by a clear zone around microwells of the recombinant clone harbouring the protease gene of SEQ ID NO. […]

Regarding `c1cnc2c(c1)ccc1cccnc12` [1,10-phenanthroline], the “inhibition of degradation of laminin and fibronectin by larval secretions” value (“inhibition of degradation … by larval secretions” for short) in [1] is listed as “not significantly”.

Turning to `N=C(N)c1ccc(CS(=O)(=O)F)cc1` [APMSF, 4-amidinophenylmethanesulfonyl fluoride], the “inhibition of degradation … by larval secretions” value in data set [1] is on record as “not significantly”. In data set [2], the “inhibition of proteolytic activity of debrilase against casein and fibrin” value is on record as “inhibited”; the “inhibition of debrilase activity” value is “inhibited completely”.

On to `O=S(=O)(F)Cc1ccccc1` [PMSF, phenylmethanesulfonyl fluoride], for which, in data set [1], the “inhibition of degradation … by larval secretions” value is “inhibited”. In addition, in data set [2], the “inhibition of proteolytic activity of debrilase against casein and fibrin” value is listed as “inhibited”; the “inhibition of debrilase activity” value is “inhibited completely”.

The molecule `Cc1cc(=O)oc2cc(NC(=O)[C@H](CCCNC(=N)N)NC(=O)CNC(=O)CNC(=O)OCc3ccccc3)ccc12` [Z-Gly-Gly-Arg-AMC] came in with a Kcat in [3] (Table 1, substrate Z-Gly-Gly-Arg-AMC (footnote)) of 37.5 s⁻¹. Also, the Km – broadly, the substrate concentration at which the rate is half of its maximum – in data set [3] (substrate Z-Gly-Gly-Arg-AMC, fluorometric assay) was found to be 70 µM.

B1: debrilase: recombinant trypsin-like serine protease from Lucilia sericata; mature protein SEQ ID NO: 4 (protein, listed as Lucilia sericata)
chain: IVNGVDTTIQAHPYQVSLQTNNGFHFCGGSIISEDIIVTAAHCMQSYKAYQFKVRLGSTEYDNGGELVAVKSFKYHEGYNPETMVNDVAVIKLATPVRESSKVRYVKLAEKTPATGTPAVVTGWGSKCFLFCQTAPKVLQKVEVDIVDEKTCASSEYKYGDDIKETMLCAYAVKKDACQGDSGGPLVANNKLVGVVSWGKGCALAGYPGVYCDVATVRSWIEKTAKSL
In [4], B1 gave a Topt of 37 °C and a pHopt of 8. The “pH-range of enzymatic activity” value in data set [4] (buffer systems in the range of pH 3-10, Z-Gly-Gly-Arg-AMC) is 5-10 pH. The specific activity in data set [4] (fluorometric assay using Z-Gly-Gly-Arg-AMC as substrate) is listed as 90 μmol* · min^−1 · mg^−1 enzyme. Further, in data set [5], the “proteolytic activity against Suc-Ala-Ala-Phe-AMC” value is on record as “not against Suc-Ala-Ala-Phe-AMC”. Besides, the “proteolytic activity against Tosyl-Gly-Pro-Arg-AMC” value in data set [6] is “exhibits proteolytic activity against fibrin, casein and Tosyl-Gly-Pro-Arg-AMC”. In addition, in [7], the “caseinolytic activity (cleavage of casein)” value was “clearing zone; also recorded: ability to cleave fibrin and casein; also recorded: exhibits proteolytic activity against fibrin, casein”. The “activation of protease-activated receptor 2 (PAR 2)” value in data set [8] is given as “activates the protease-activated receptor PAR-2”. The “fibrinolytic activity (cleavage of fibrin)” value in data set [9] was “clearing zone; also recorded: ability to cleave fibrin; also recorded: exhibits proteolytic activity against fibrin”.
